What was measured:
MRSA [1] = assay: Potentiation screening assay: methicillin MIC reduction in MRSA; format: cell-based, Staphylococcus aureus; conditions: 0, 5, and 10 μg/ml test compound
Procedure: After regrowth at 35° C. to an OD600 of 0.2-0.4 (1-2 hrs.), the cells are diluted 1/1000 in MHB. […] The plate is placed in a humidified 35° C. incubator for 5-24 hours, and cell growth or inhibition is read as turbidity (OD600). Two positive and one negative controls for growth are cells grown MHB, cells grown in MHB plus 20 μg/ml methicillin alone (without test compound), and uninoculated MHB respectively.
Compounds which meet the first two criteria for follow-up are evaluated in a standard microdilution assessment of the MIC with methicillin for MRSA. (see Lorian, Antibiotics in Laboratory Medicine, 3rd ed., pp. 72-75 (1991).) In order to be carried further, the MIC of methicillin preferably is reduced in the presence of the potentiator to at most twice the MIC of a susceptible strain for methicillin.
MICs for the compounds were determined in the presence of 0, 5, and 10 μg/ml of each compound. MRSA cells were grown in the presence of 0, 5, and 10 μg/ml test compound and concentrations of methicillin obtained from serial two-fold dilutions starting at 1024 μg/ml to 0.002 μg/ml (This range can be extended or refined as appropriate.) as follows: A fresh inoculum of MRSA cells was grown at 35° C. in Mueller-Hinton Broth (MHB) overnight and then diluted 1/50 in the same medium. After regrowth at 35° C. to an OD600 of 0.2-0.4 (1-2 hrs.), the cells were diluted 1/1000 in MHB. […] The plate was placed in a humidified 35° C. incubator for 24 hours, and cell growth or inhibition was read as turbidity (OD600).

MRSA [2] = assay: Specificity: intrinsic antibacterial activity without antibacterial agent; format: cell-based, Staphylococcus aureus; conditions: test compound alone, without methicillin
Procedure: In order to ascertain that the test compound is not primarily responsible for inhibition of growth, MRSA cells are grown in the presence of 5 μg/ml test compound as follows: A fresh inoculum of MRSA cells is grown at 35° C. in Mueller-Hinton Broth (MHB) overnight and then diluted 1/50 in the same medium. After regrowth at 35° C. to an OD600 of 0.2-0.4 (1-2 hrs.), the cells are diluted 1/1000 in MHB. In a microtiter plate, 50 μl of this diluted culture is combined with 50 μl MHB containing 10 μg/ml test compound to give starting growth conditions of 5×10^5 cfu/ml in MHB, with 5 μg/ml test compound. The plate is placed in a humidified 35° C. incubator for 5-24 hours, and cell growth or inhibition is read as turbidity (OD600). To be carried forward to the next step of the potentiator screening assay, the test compound should have little or no intrinsic anti-staphylococcal activity (growth should be at least 75% of the growth of the positive control without methicillin, corrected for background), or that activity should be explicable without indicating the probability of human toxicity.

[3] = tested on: Enterococcus faecalis VanB; assay: Checkerboard assay / dose range study with vancomycin; format: cell-based
Excerpt: (§1) FIG. 9a provides the results of checkerboard assays showing the MIC reduction for vancomycin in the presence of a range of concentrations of brazilin against two Enterococcus faecalis strains, one VanA and the other VanB. […] Similarly, FIG. 9b provides the results of checkerboard assays showing the MIC reduction for vancomycin in the presence of a range of concentrations of 6-ethyl-7-[1-oxo-3-(1-pyrrolidino)]propyl-1,2,3,4-tetrahydro-1,1,4,4-tetramethylnaphthalene (EOPPTTN).
(§2) Two of the three compounds (brazilin and 6-ethyl-7-[oxo-3-(1-pyrrolidino)]propyl-1,2,3,4-tetrahydro-1,1,4,4-tetramethylnaphthalene) have been examined for synergy with vancomycin. […] Two examples of reasons for alterations are for further optimization, and for modification for use with other bacterial strains or species.

[4] = tested on: Enterococcus faecalis VanA; assay: as above; format: cell-based
Excerpt: as §1, §2

E. faecalis VanA strain = assay: Vancomycin potentiation screens VPS-20 and VPS-D-ala; format: cell-based, Enterococcus faecalis; conditions: 10 ug/ml test compound
Procedure: In the VPS-20 protocol, vancomycin is used at 20 ug/ml, test compounds are used at 10 ug/ml (this is not critical, a range could be used as well). The growth medium is Brain Heart Infusion broth however, any of a variety of media which will support growth of the specific bacterial strain can be used. The VPS-D-Ala screen uses 8 ug/ml of vancomycin and 50 mM D-alanine. This amino acid is added to feed the bacteria excess alanine, which allows the bacteria to incorporate the alanine in some cases instead of incorporating the (resistance causing) D-lactate in the pentapeptide termini of the cell wall precursor. The presence of this D-alanine supplement thus makes the assay less stringent.
Inoculate E. faecalis VanA strain in BHI broth (pick a few colonies into 3 ml BHI with 2.56 ug/ml vancomycin and grow O/N at 35° C. in a shaker rotating at 225 rpm.
Dilute the O/N culture 1:50 in BHI with 2.56 ug/ml vancomycin (0.5 ml±24.5 ml BHI) in a 125-ml flask, put back in the 35° C. shaker until the cells grow to early log phase (OD600 about 0.2, takes approximately 2 hrs). Make a 1:800 dilution of the log phase culture with BHI broth. 50 ul of these diluted cells will be used as the inoculum in the assay as described below. Add the inoculum after the other reagents.
Meanwhile, test the inoculum concentration and purity: Make 3 serial 10-fold dilutions of the inoculum in 0.2 ml BHI broth. Plate 100 ul on TSA agar plates (trypticase soy agar), incubate at 35° C. O/N, count the colonies to estimate the CFU/ml in the inoculum (it should be 10^4 -10^5 CFU/ml).
Make vancomycin stock at 50 mg/ml in ddH2 O. Filter sterilize with 0.2 um filter, and keep in the freezer. On the day of the assay, dilute vancomycin to 50 ug/ml (for VPS-20) or 54 ug/ml (for VPS-D-ala) in BHI broth.
Prepare D-alanine (Sigma) at 800 mM in ddH2O. Filter sterilize with 0.2 um filter.
The test compounds are from 0.1 mg/ml plates in 10% DMSO, 90% 50 mM HEPES, pH 7.3. Thaw at room temperature.
1. Take 40 ul 50 ug/ml vancomycin in BHI to each well of the assay plate (Final volume will be 100 ul, making vancomycin concentration 20 ug/ml)
2. For each assay plate, prepare a toxicity control plate; instead of pipetting 40 ul of the vancomycin, use 40 ul of BHI broth in each well of the assay plate.
3. Dilute 800 mM D-alanine to 200 mM in BHI broth, take 25 ul of the 200 mM D-alanine to both the assay plate and the toxic control plate.
4. Take 15 ul of 54 ug/ml vancomycin in BHI to each well of the assay plate (Final volume will be 100 ul, making vancomycin concentration 8 ug/ml)
5. For each assay plate, prepare a toxicity control plate; instead of pipetting 15 ul of the vancomycin, use 15 ul of BHI broth in each well of the assay plate.
6. Take 10 ul/well of the test compounds to the assay plates and the toxicity control plates. Do this in perfect register in the microtiter plates (change tips), and work using sterile technique (Final concentration will be 10 ug/ml test compounds, 1% DMSO). This must be done with separate tips, in perfect register.
7. Add 10 ul of 10% DMSO, 90% 50 mM HEPES, pH 7.3 in columns 1 and 12 in each plates.
8. Inoculate all wells in columns 2 to 11 with 50 ul 1/800 diluted log phase culture (prepared as indicated above). Use 50 ul sterile BHI instead of inoculum for the negative growth controls in well A-D in columns 1 and well E-H in columns 12. Add 50 ul of inoculum to Wells E-H in columns 1 and wells A-D in columns 12 for the positive growth controls.
11. […] Remove mylar lids and check the cell density (A600) in 21-24 hours using a microtiter plate reader. The plates will need to be agitated carefully to resuspend the cells before reading.

Row | Compound | effect on the MIC for methicillin (MRSA [1]) | intrinsic antimicrobial activity (MRSA [2]) | other results
1 | 10a, 12a dimethyl 1-8-hydroxy-tetradecahydrochrysene | reduce the MIC for methicillin | not exhibiting intrinsic antimicrobial activity | 
2 | C[C@]12CC[C@@H]3c4ccc(O)cc4CC[C@H]3[C@@H]1CC[C@@H]2O [β-estradiol] | little or no effect on the MIC for methicillin |  | 
3 | COc1ccc2c(c1)[C@]13CCCC[C@@H]1[C@H](C2)N(C)CC3 [dextromethorphan] | little or no effect on the MIC for methicillin |  | 
4 | 4a, 5-epoxy-3-oxo-14H-4,6a,9,9-4mephenanthro (2,3-D)(1,3)dioxole-4-propionic acid | little or no effect on the MIC for methicillin |  | 
5 | CCc1cc2c(cc1C(=O)CCN1CCCC1)C(C)(C)CCC2(C)C [EOPPTTN, 6-ethyl-7-[1-oxo-3-(1-pyrrolidino)]propyl-1,2,3,4-tetrahydro-1,1,4,4-tetramethylnaphthalene] |  |  | vancomycin MIC reduction in checkerboard assay ([3]; compound 0-20 μg/ml, VanB): the vancomycin MIC declined significantly; synergy with vancomycin ([3]; dose range study, VanB phenotype): synergy; vancomycin MIC reduction in checkerboard assay ([4]; compound 0-20 μg/ml, VanA): the vancomycin MIC declined significantly; synergy with vancomycin ([4]; dose range study, VanA phenotype): synergy; intrinsic activity against the control cells (E. faecalis VanA strain; no vancomycin): some intrinsic activity against the control cells; vancomycin potentiation screen result (E. faecalis VanA strain; VPS-20 and/or VPS-D-ala): positive, but less than N-benzyl thiosalicylamide
6 | C=C1CC[C@@H]2[C@](C)(CO)[C@H](O)CC[C@@]2(C)[C@@H]1C/C=C1/C(=O)OC[C@H]1O [andrographolide] | little or no effect on the MIC for methicillin |  | 
7 | C=C1CC[C@H](O)C/C1=C/C=C1\CCC[C@]2(C)[C@@H]([C@H](C)/C=C/[C@H](C)C(C)C)CC[C@@H]12 [ergocalciferol] | little or no effect on the MIC for methicillin |  | 
8 | C[C@@]12CCC[C@H]1[C@@H]1CC[C@@H]3C[C@@H](O)CC[C@]3(C)[C@H]1CC2 [5β-androstan-3β-ol] | reduce the MIC for methicillin | not exhibiting intrinsic antimicrobial activity | 
9 | C[C@@]12CCC[C@H]1[C@@H]1CC[C@@H]3C[C@H](O)CC[C@]3(C)[C@H]1CC2 [5β-androstan-3-α-ol] | reduce the MIC for methicillin | not exhibiting intrinsic antimicrobial activity | 
10 | COc1cc2c(cc1OC)C(=O)CCC2 [6,7-dimethoxy-1-tetralone] | little or no effect on the MIC for methicillin |  | 
11 | COC(=O)C1(C)CCCC2(C)c3cc(OC)ccc3CCC12 (stereo not drawn) [methyl o-methyl-podocarpate] | little or no effect on the MIC for methicillin |  | 
12 | COc1ccc2c(c1)CCCC2=O [6-methoxy-1-tetralone] | little or no effect on the MIC for methicillin |  | 
13 | COc1ccc2c(c1)CCCC2 [6-methoxy-1,2,3,4-tetrahydronaphthalene] | little or no effect on the MIC for methicillin |  | 
14 | C[C@]12CC[C@@H]3c4ccc(O)cc4CC[C@H]3[C@@H]1CC[C@H]2O [α-estradiol] | little or no effect on the MIC for methicillin |  | 
15 | C[C@@]12CCC[C@H]1[C@@H]1CC[C@H]3C[C@@H](O)CC[C@]3(C)[C@H]1CC2 [5-α-androstan-3β-ol] | reduce the MIC for methicillin | not exhibiting intrinsic antimicrobial activity | 
16 | CC1(C)CCCC2(C)C1CCC1(C)OC(=O)CC12 (single isomer, unassigned) [(3aR) -(+) -sclareolide] | little or no effect on the MIC for methicillin |  | 
17 | C[C@]12CC[C@H](O)C[C@@H]1CC[C@@H]1[C@@H]2CC[C@]2(C)C(=O)CC[C@@H]12 [epiandrosterone] | little or no effect on the MIC for methicillin |  | 
18 | C[C@H]1[C@H](C)CC[C@]2(CO)CC[C@]3(C)C(=CC[C@@H]4[C@@]5(C)CC[C@H](O)C(C)(C)[C@@H]5CC[C@]43C)[C@H]12 [uvaol] | reduce the MIC for methicillin | not exhibiting intrinsic antimicrobial activity | 
19 | COc1ccc2c(c1)CC[C@@H]1[C@@H]2CC[C@]2(C)[C@@H](O)CC[C@@H]12 [β-estradiol-3-methyl ether] | reduce the MIC for methicillin | not exhibiting intrinsic antimicrobial activity | 

— patent US5883074A, “Potentiators of antibacterial agents” (priority 1995, dated 1999)
